{"source": "patent US9890195B2", "about": "“MK2 inhibitor compositions and methods to enhance neurite outgrowth, neuroprotection, and nerve regeneration” (Purdue Research Foundation, priority 2009, dated 2018)", "tested_on": "mixed cortical cultures comprising neurons, astrocytes, and microglia", "assay": "Immunocytochemistry/cell imaging of mixed cortical cultures treated with MK2i and TNF-α", "type": "cell-based, Sprague-Dawley rat", "conditions": "for morphological effects on neurons, astrocytes, microglia (FIG. 3): no TNF-α", "protocol": "The effect of MK2i on neuronal cell death and microglical activation was investigated by treating 1-week old mixed cortical cultures comprising neurons, astrocytes, and microglia with the MK2i peptide […] [SEQ ID NO: 33]. Primary Cortical Cell Culture\nEmbryonic rat cortical tissue was obtained immediately following removal of embryos from the rat's abdomen. E17 Sprague-Dawley rat cortical tissue was placed in a 50 ml conical tube containing 5 ml of Solution 1 (NaCl 7.24 g/L; KCl 0.4 g/L; NaH2PO4 0.14 g/L; Glucose 2.61 g/L; Hepes 5.96 g/L; MgSO4 0.295 g/L; Bovine Serum Albumin 3 g/L). Under sterile conditions, 18 μl of trypsin solution (7.5 mg/ml in 0.9% saline) was added and tissue was passed through a 5-ml pipet several times to disassociate tissue. After the conical tube was placed in a 37° C. water bath for 20 minutes, 100 μl of trypsin inhibitor/DNAse solution (2.5 mg/ml trypsin inhibitor, 400 μg/ml DNase in 0.9% saline) was added to the tube and tissue was pipetted several times with a 5-ml pipet. Tissue was centrifuged at 1,000 rpm for 5 minutes at room temperature and supernatant was poured off. Cells were re-suspended in 16 ml of Hibernate E (BrainBits, Springfield, Ill.) and 100 μl of trypsin inhibitor/DNAse solution and pipetted up and down several times. Cells were filtered through a cell strainer and centrifuged at 1,400 rpm for 5 minutes at room temperature. Supernatant was poured off and cells were re-suspended in media. Primary cells were then plated in poly-D-lysine coated 96-well plates at a seeding density of 625,000 cells/cm^2 and incubated for 7-9 days at 37° C. After 7-9 days, cortical cells were treated with 5 ng/ml or 10 ng/ml of TNF-α to activate microglia. Cells then were treated with 0, 0.5, 1, or 3 mM MK2i peptide […] [SEQ ID NO: 33] for 4 hours, 8 hours, and 24 hours. After treatment, media was removed and stored at −20° C.\nIn preparation for staining mixed cortical cells, cell media was replaced with phosphate-buffered 4% formaldehyde solution for 5 minutes, followed by three washes using HBHS solution (HEPES-buffered Hank's saline containing 10 mg/L sodium azide, pH 7.4). Blocking solution, consisting of 10% normal goat serum in HBHS, then was applied for 30 minutes, followed by three washes with HBHS. Microglia, astrocytes, and neurons were labeled using antibodies against ionized calcium binding adaptor molecule 1 (Iba1, Wako), glial fibrillary acidic protein (GFAP, Millipore), and β-3-tubulin (β3tub, Covance), respectively. Antibodies were applied for 2 hours, at a dilution of 1:400 in HBHS. After two 10 minute washes and one 30 minute wash, secondary antibodies were applied. […]", "note": "Where no end group is shown, it is not given here.", "data": [{"substance": "YARAAARQARAKALARQLGVAA-NH2 [MK2i]", "values": [{"measurement": "suppression of TNF-α-induced neuronal cell damage (FIG. 4)", "setting": "5 ng/ml and 10 ng/ml TNF-α, 3 mM MK2i, which also resulted in neuronal cell damage", "value": "not maintained"}, {"measurement": "morphological effects on neurons, astrocytes, microglia (FIG. 3)", "setting": "0.5 mM and 1.0 mM MK2i (below 3 mM)", "value": "Minimal morphological effects"}, {"measurement": "astrocyte damage (FIG. 6)", "setting": "3 mM MK2i", "value": "damage to astrocytes"}, {"measurement": "morphological effects on neurons, astrocytes, microglia (FIG. 3)", "setting": "3 mM MK2i", "value": "increased neuronal and astrocytic cell damage, as well as microglial proliferation"}]}]}
